# Reference: US6291527A (priority 1998, dated 2001)
# Counter-ions that a name gives are not always drawn.
# Key:
# [1] = animal studies of the three salts vs Ketoprofen acid and Ketoprofen sodium salt: distribution and kinetics; assay type: in vivo, experimental animals; conditions: for active substance concentration in the inflamed site: injection, vs Ketoprofen sodium salt; for kinetic parameters after oral administration: vs Ketoprofen acid and Ketoprofen sodium salt
# Description: The three above mentioned Ketoprofen salts were compared with Ketoprofen acid and Ketoprofen sodium salt in animal studies.
# [2] = tested on: inflammatory exudate (IE); assay: foreign body (sponge) method in the rat: inflammatory exudate volume; assay type: in vivo; conditions: for IE (inflammatory exudate) volume / % inhibition versus controls of IE: 8 hours; for IE (inflammatory exudate) volume: mean ± MSE, controls 5.15 ± 0.28
# Procedure: (§1) These tests involved the use of 100 male CD strain rats (Charles River, Calco, LC, Italy) weighing 180±8 g. The animals were fasted for 12 hours (water ad libitum) before being used for the experiment.
# (§2) The inflammatory reaction with the formation of exudate was induced by using sterilized polyester sponges (4×1.5×0.5 cm) soaked in carrageen dissolved at a 2% concentration in sterile physiological solution. The rats were anesthetized lightly with ether and two sponges per rat were implanted subcutaneously in a previously shaven dorsal area.
# (§3) The sponges were removed 8 hours later after having sacrificed the animals by ether euthanasia, and immediately placed in large polyethylene 50 ml test tubes containing 10 ml of heparinized physiological solution. The test tubes were then subjected to centrifugation (1000 rotations; 15 minutes), followed by removal of the sponges and accurate measurement of the volume of the remaining fluid. Always using the Higgs et al. method, the acid lipids present in the fluid were extracted in chloroform with prior dilution in ethanol and acidification to pH 3. After complete evaporation of the chloroform, the remaining dry residue was dissolved in physiological solution and used for the immunoenzymatic assay of prostaglandin E2 (PGE2).
# (§4) All the other reagents used for the tests were purchased from Merck-Bracco (Milan, Italy).
# prostaglandin E2 (PGE2) = assay: foreign body (sponge) method in the rat: PGE2 in the inflammatory exudate (immunoenzymatic assay); assay type: in vivo; conditions: rat, oral, listed as KLS; for PGE2 concentration in the inflammatory exudate / % inhibition versus controls of PGE2: 8 hours; for PGE2 concentration in the inflammatory exudate: mean, controls 98.7 ± 4.7
# Procedure: as §1, §2, §3, §4
# carrageen edema = carrageen edema test in the rat (hind paw volume, plethysmometer); conditions: rat, oral; for evolution of paw volume (delta in ml) at 1st hour / evolution of paw volume (delta in ml) at 2nd hour / evolution of paw volume (delta in ml) at 3rd hour / evolution of paw volume (delta in ml) at 4th hour / evolution of paw volume (delta in ml) at 5th hour / evolution of paw volume (delta in ml) at 6th hour: mean ± MSE; for % inhibition vs controls (paw edema AUC): p < 0.001; for AUC (mean ± MSE) of increase in paw volume: paw volume (delta in ml) vs time (0 to 6 hours), controls 4.23 ± 0.26; for oral ED50 (carrageen edema, extrapolated from AUC): 95% conf. lim. KGS 0.733-1.474, KLS 1.198-1.567
# [3] = rat, oral, 0.5 mg/kg, listed as KLS
# [4] = rat, oral, 1 mg/kg, listed as KLS
# [5] = rat, oral, 2 mg/kg, listed as KLS
# [6] = rat, oral, 4 mg/kg, listed as KLS
structure (smiles),measurement,setting,value
CC(C(=O)O)c1cccc(C(=O)c2ccccc2)c1 (stereo not shown) [Ketoprofen Proline salt],active substance concentration in the inflamed site,[1],intermediate concentrations between the sodium salt and the Glucosamine salt
same,kinetic parameters after oral administration,[1],significantly different
CC(C(=O)O)c1cccc(C(=O)c2ccccc2)c1 (stereo not shown) [Ketoprofen Hydroxyproline salt],active substance concentration in the inflamed site,[1],intermediate concentrations between the sodium salt and the Glucosamine salt
same,kinetic parameters after oral administration,[1],significantly different
CC(C(=O)O)c1cccc(C(=O)c2ccccc2)c1 (stereo not shown) [Ketoprofen Lysine salt],control of the inflammatory response to sponge implantation,"[2]; rat, 0.5, 1, 2 and 4 mg/kg per os",able to control the inflammatory response
same,IE (inflammatory exudate) volume,[2]; [3],4.33 ± 0.26 mL
same,% inhibition versus controls of IE,[2]; [3],15.9%
same,IE (inflammatory exudate) volume,[2]; [4],3.82 ± 0.15 mL
same,% inhibition versus controls of IE,[2]; [4],25.8%
same,IE (inflammatory exudate) volume,[2]; [5],2.97 ± 0.19 mL
same,% inhibition versus controls of IE,[2]; [5],42.3%
same,IE (inflammatory exudate) volume,[2]; [6],1.68 ± 0.14 mL
same,% inhibition versus controls of IE,[2]; [6],67.4%
same,IE oral ED50,"[2]; rat, oral, 95% confidence limits KGS 1.802-2.381, KLS 2.334-3.094, 480 min, listed as KLS",2.714 mg/kg
same,PGE2 concentration in the inflammatory exudate,prostaglandin E2 (PGE2); 0.5 mg/kg,78.1 ng/mL
same,% inhibition versus controls of PGE2,prostaglandin E2 (PGE2); 0.5 mg/kg,20.9%
same,PGE2 concentration in the inflammatory exudate,prostaglandin E2 (PGE2); 1 mg/kg,67.9 ng/mL
same,% inhibition versus controls of PGE2,prostaglandin E2 (PGE2); 1 mg/kg,31.2%
same,PGE2 concentration in the inflammatory exudate,prostaglandin E2 (PGE2); 2 mg/kg,55.6 ng/mL
same,% inhibition versus controls of PGE2,prostaglandin E2 (PGE2); 2 mg/kg,43.7%
same,PGE2 concentration in the inflammatory exudate,prostaglandin E2 (PGE2); 4 mg/kg,32.8 ng/mL
same,% inhibition versus controls of PGE2,prostaglandin E2 (PGE2); 4 mg/kg,66.8%
same,PGE2 oral ED50,"prostaglandin E2 (PGE2); 95% confidence limits KGS 1.848-2.131, KLS 2.215-3.005, 480 min",2.610 mg/kg
same,evolution of paw volume (delta in ml) at 1st hour,"carrageen edema; 0.5 mg/kg, controls 0.40 ± 0.02, listed as KLS",0.32 ± 0.02 mL
same,evolution of paw volume (delta in ml) at 2nd hour,"carrageen edema; 0.5 mg/kg, controls 0.71 ± 0.02, listed as KLS",0.53 ± 0.03 mL
same,evolution of paw volume (delta in ml) at 3rd hour,"carrageen edema; 0.5 mg/kg, controls 0.87 ± 0.03, listed as KLS",0.66 ± 0.04 mL
same,evolution of paw volume (delta in ml) at 4th hour,"carrageen edema; 0.5 mg/kg, controls 0.93 ± 0.03, listed as KLS",0.70 ± 0.03 mL
same,evolution of paw volume (delta in ml) at 5th hour,"carrageen edema; 0.5 mg/kg, controls 0.90 ± 0.04, listed as KLS",0.68 ± 0.02 mL
same,evolution of paw volume (delta in ml) at 6th hour,"carrageen edema; 0.5 mg/kg, controls 0.84 ± 0.04, listed as KLS",0.64 ± 0.03 mL
same,% inhibition vs controls (paw edema AUC),"carrageen edema; 0.5 mg/kg, listed as KLS",24.1%
same,AUC (mean ± MSE) of increase in paw volume,"carrageen edema; 0.5 mg/kg, listed as KLS, 0.5 mg/kg",3.21 ± 0.17
same,evolution of paw volume (delta in ml) at 1st hour,"carrageen edema; 1 mg/kg, listed as KLS",0.24 ± 0.02 mL
same,evolution of paw volume (delta in ml) at 2nd hour,"carrageen edema; 1 mg/kg, listed as KLS",0.43 ± 0.03 mL
same,evolution of paw volume (delta in ml) at 3rd hour,"carrageen edema; 1 mg/kg, listed as KLS",0.54 ± 0.03 mL
same,evolution of paw volume (delta in ml) at 4th hour,"carrageen edema; 1 mg/kg, listed as KLS",0.59 ± 0.03 mL
same,evolution of paw volume (delta in ml) at 5th hour,"carrageen edema; 1 mg/kg, listed as KLS",0.57 ± 0.03 mL
same,evolution of paw volume (delta in ml) at 6th hour,"carrageen edema; 1 mg/kg, listed as KLS",0.49 ± 0.03 mL
same,% inhibition vs controls (paw edema AUC),"carrageen edema; 1 mg/kg, listed as KLS",38.0%
same,AUC (mean ± MSE) of increase in paw volume,"carrageen edema; 1 mg/kg, listed as KLS, 1 mg/kg",2.62 ± 0.12
same,evolution of paw volume (delta in ml) at 1st hour,"carrageen edema; 2 mg/kg, listed as KLS",0.13 ± 0.02 mL
same,evolution of paw volume (delta in ml) at 2nd hour,"carrageen edema; 2 mg/kg, listed as KLS",0.23 ± 0.02 mL
same,evolution of paw volume (delta in ml) at 3rd hour,"carrageen edema; 2 mg/kg, listed as KLS",0.28 ± 0.02 mL
same,evolution of paw volume (delta in ml) at 4th hour,"carrageen edema; 2 mg/kg, listed as KLS",0.29 ± 0.02 mL
same,evolution of paw volume (delta in ml) at 5th hour,"carrageen edema; 2 mg/kg, listed as KLS",0.28 ± 0.02 mL
same,evolution of paw volume (delta in ml) at 6th hour,"carrageen edema; 2 mg/kg, listed as KLS",0.23 ± 0.03 mL
same,% inhibition vs controls (paw edema AUC),"carrageen edema; 2 mg/kg, listed as KLS",68.6%
same,AUC (mean ± MSE) of increase in paw volume,"carrageen edema; 2 mg/kg, listed as KLS, 2 mg/kg",1.33 ± 0.07
same,"oral ED50 (carrageen edema, extrapolated from AUC)",carrageen edema,1.383 mg/kg
same,"oral ED50 (carrageen edema, extrapolated from AUC)",carrageen edema; listed as KLS,1.383 mg/kg
